Where two headings read alike, the source gives them in different places.
Target: CFTR (Homo sapiens, UniProt P13569)
Experiment: Membrane Potential Dye, Enteroid Assay B
Assay type: cell-based
Summary of the method: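 Human intestinal enteroid cells exposed to compound 18-24 h at 37 °C, then loaded with methyl oxonol membrane-potential dye plus CaCC blockers. Chloride transport triggered in chloride-free buffer with 10 μM forskolin, 100 μM IBMX, 300 nM Compound III; fluorescence read 15 min, expressed as % of triple-corrector/potentiator combination control.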

[1] = Table 10, read-out: Ent. B EC50

Sequence of CFTR (P13569 with tags, fused parts or gaps DEL508-508): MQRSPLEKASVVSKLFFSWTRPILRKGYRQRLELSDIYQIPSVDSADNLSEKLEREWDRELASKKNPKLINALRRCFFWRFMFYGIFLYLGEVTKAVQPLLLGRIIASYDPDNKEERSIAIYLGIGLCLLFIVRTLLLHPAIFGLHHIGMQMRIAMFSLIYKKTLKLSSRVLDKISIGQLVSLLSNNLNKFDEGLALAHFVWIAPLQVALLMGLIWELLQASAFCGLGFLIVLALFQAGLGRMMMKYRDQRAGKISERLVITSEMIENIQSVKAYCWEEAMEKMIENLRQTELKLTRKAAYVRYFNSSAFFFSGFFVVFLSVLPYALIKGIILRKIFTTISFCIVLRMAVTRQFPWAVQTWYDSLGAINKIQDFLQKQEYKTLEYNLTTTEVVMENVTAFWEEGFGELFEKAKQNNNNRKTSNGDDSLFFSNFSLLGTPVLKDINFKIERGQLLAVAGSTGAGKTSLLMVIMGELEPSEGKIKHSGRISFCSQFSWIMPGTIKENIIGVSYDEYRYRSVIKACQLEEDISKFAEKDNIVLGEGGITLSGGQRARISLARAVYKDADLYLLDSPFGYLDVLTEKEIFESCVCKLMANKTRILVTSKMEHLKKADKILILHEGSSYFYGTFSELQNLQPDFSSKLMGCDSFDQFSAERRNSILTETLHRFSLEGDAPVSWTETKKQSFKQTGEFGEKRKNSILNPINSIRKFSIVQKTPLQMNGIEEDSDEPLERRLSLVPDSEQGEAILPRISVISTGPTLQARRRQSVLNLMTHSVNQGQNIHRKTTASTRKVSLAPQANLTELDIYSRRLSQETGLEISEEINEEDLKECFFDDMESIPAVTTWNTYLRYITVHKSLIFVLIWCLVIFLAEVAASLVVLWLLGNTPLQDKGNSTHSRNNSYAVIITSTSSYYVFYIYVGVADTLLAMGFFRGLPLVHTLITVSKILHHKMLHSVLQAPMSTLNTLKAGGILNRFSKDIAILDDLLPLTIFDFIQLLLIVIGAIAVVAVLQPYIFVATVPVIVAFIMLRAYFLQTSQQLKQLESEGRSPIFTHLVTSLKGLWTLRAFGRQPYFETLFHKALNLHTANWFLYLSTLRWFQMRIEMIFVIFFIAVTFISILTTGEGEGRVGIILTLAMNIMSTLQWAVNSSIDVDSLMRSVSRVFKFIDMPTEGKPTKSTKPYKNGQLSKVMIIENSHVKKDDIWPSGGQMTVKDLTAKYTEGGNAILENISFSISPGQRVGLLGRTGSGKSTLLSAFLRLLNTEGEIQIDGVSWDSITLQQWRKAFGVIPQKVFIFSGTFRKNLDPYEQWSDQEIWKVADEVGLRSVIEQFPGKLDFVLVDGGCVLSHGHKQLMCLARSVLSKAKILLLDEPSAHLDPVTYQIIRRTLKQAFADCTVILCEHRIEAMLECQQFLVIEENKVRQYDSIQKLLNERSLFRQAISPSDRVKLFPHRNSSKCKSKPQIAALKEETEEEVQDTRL

Row | Compound | Ent. B Max Activity (%) | EC50 (read-out: Ent. B EC50) | Ent. B Max Activity (%) (Table 9) | EC50 (Table 9, read-out: Ent. B EC50) | other results
1 | Cc1cccc(C)c1-c1cc2nc(n1)NS(=O)(=O)c1cccc(c1)C(=O)N(c1cnn(C)c1)[C@H](CC(C)C)CO2 [Compound 97, (11R)-6-(2,6-Dimethylphenyl)-11-isobutyl-12-(1-methylpyrazol-4-yl)-2,2-dioxo-9-oxa-2λ^6-thia-3,5,12,19-tetrazatricyclo[12.3.1.14,8]nonadeca-1(18),4(19),5,7,14,16-hexaen-13-one] | – | – | – | – | Ent. B Max Activity (%) (Table 10): +++ (+++ is >60%); EC50 [1]: < 1000 nM
2 | Cc1cccc(C)c1-c1cc2nc(n1)NS(=O)(=O)c1cccc(c1)C(=O)N(C1CC3(C1)CN(C(=O)OC(C)C)C3)[C@H](CC(C)C)CO2 [Compound 102, Isopropyl 6-[(11R)-6-(2,6-dimethylphenyl)-11-isobutyl-2,2,13-trioxo-9-oxa-2λ^6-thia-3,5,12,19-tetrazatricyclo[12.3.1.14,8]nonadeca-1(18),4(19),5,7,14,16-hexaen-12-yl]-2-azaspiro[3.3]heptane-2-carboxylate] | +++ (+++ is >60%) | < 1000 nM | – | – | –
3 | Cc1cccc(C)c1-c1cc2nc(n1)NS(=O)(=O)c1cccc(c1)C(=O)N(C1CC3(C1)CN(C(C)C)C3)[C@H](CC(C)C)CO2 [Compound 103, (11R)-6-(2,6-Dimethylphenyl)-11-isobutyl-12-(2-isopropyl-2-azaspiro[3.3]heptan-6-yl)-2,2-dioxo-9-oxa-2λ^6-thia-3,5,12,19-tetrazatricyclo[12.3.1.14,8]nonadeca-1(18),4(19),5,7,14,16-hexaen-13-one] | +++ (+++ is >60%) | < 1000 nM | – | – | –
4 | COCCN1CC2(CC(N3C(=O)c4cccc(c4)S(=O)(=O)Nc4nc(cc(-c5c(C)cccc5C)n4)OC[C@H]3CC(C)C)C2)C1 [Compound 104, (11R)-6-(2,6-Dimethylphenyl)-11-isobutyl-12-[2-(2-methoxyethyl)-2-azaspiro[3.3]heptan-6-yl]-2,2-dioxo-9-oxa-2λ^6-thia-3,5,12,19-tetrazatricyclo[12.3.1.14,8]nonadeca-1(18),4(19),5,7,14,16-hexaen-13-one] | – | – | +++ (+++ is >60%) | – | –
5 | Cc1cccc(C)c1-c1cc2nc(n1)NS(=O)(=O)c1cccc(c1)C(=O)N(C1CN(C(=O)OC(C)C)C(C)(C)C1)[C@H](CC(C)C)CO2 (stereo partly drawn) [Compound 110, Propan-2-yl 4-[(11R)-6-(2,6-dimethylphenyl)-11-(2-methylpropyl)-2,2,13-trioxo-9-oxa-2λ^6-thia-3,5,12,19-tetraazatricyclo[12.3.1.14,8]nonadeca-1(17),4(19),5,7,14(18),15-hexaen-12-yl]-2,2-dimethylpyrrolidine-1-carboxylate] | – | – | +++ (+++ is >60%) | < 1000 nM | –
6 | COCCN1CCC2(CC1)CC(N1C(=O)c3cccc(c3)S(=O)(=O)Nc3nc(cc(-c4c(C)cccc4C)n3)OC[C@H]1CC1(C(F)(F)F)CC1)C2 [Compound 128, (11R)-6-(2,6-Dimethylphenyl)-12-[7-(2-methoxyethyl)-7-azaspiro[3.5]nonan-2-yl]-2,2-dioxo-11-[[1-(trifluoromethyl)cyclopropyl]methyl]-9-oxa-2λ^6-thia-3,5,12,19-tetrazatricyclo[12.3.1.14,8]nonadeca-1(18),4(19),5,7,14,16-hexaen-13-one] | +++ (+++ is >60%) | < 1000 nM | – | – | –
7 | Cc1cccc(C)c1-c1cc2nc(n1)NS(=O)(=O)c1cccc(c1)C(=O)N(C1CC3(CCN(CCOC(C)C)CC3)C1)[C@H](CC1(C(F)(F)F)CC1)CO2 [Compound 129, (11R)-6-(2,6-dimethylphenyl)-12-[7-(2-isopropoxyethyl)-7-azaspiro[3.5]nonan-2-yl]-2,2-dioxo-11-[[1-(trifluoromethyl)cyclopropyl]methyl]-9-oxa-2λ^6-thia-3,5,12,19-tetrazatricyclo[12.3.1.14,8]nonadeca-1(18),4(19),5,7,14,16-hexaen-13-one] | +++ (+++ is >60%) | < 1000 nM | – | – | –
8 | Cc1cccc(C)c1-c1cc2nc(n1)NS(=O)(=O)c1cccc(c1)C(=O)N(C1CC3(C1)CN(C(C)C)C3)[C@H](CC1(C(F)(F)F)CC1)CO2 [Compound 132, (11R)-6-(2,6-Dimethylphenyl)-12-(2-isopropyl-2-azaspiro[3.3]heptan-6-yl)-2,2-dioxo-11-[[1-(trifluoromethyl)cyclopropyl]methyl]-9-oxa-2λ^6-thia-3,5,12,19-tetrazatricyclo[12.3.1.14,8]nonadeca-1(18),4(19),5,7,14,16-hexaen-13-one] | – | – | +++ (+++ is >60%) | < 1000 nM | –
9 | Cc1cccc(C)c1-c1cc2nc(n1)NS(=O)(=O)c1cccc(c1)C(=O)N(C1CC3(C1)CN(C(=O)OC(C)C)C3)[C@H](CC1(C(F)(F)F)CC1)CO2 [Compound 133, Propan-2-yl 6-[(11R)-6-(2,6-dimethylphenyl)-2,2,13-trioxo-11-{[1-(trifluoromethyl)cyclopropyl]methyl}-9-oxa-2λ^6-thia-3,5,12,19-tetraazatricyclo[12.3.1.14,8]nonadeca-1(17),4,6,8(19),14(18),15-hexaen-12-yl]-2-azaspiro[3.3]heptane-2-carboxylate] | – | – | +++ (+++ is >60%) | < 1000 nM | –
10 | COCCN1CCC2(CC1)CC(N1C(=O)c3cccc(c3)S(=O)(=O)Nc3nc(cc(-c4c(C)cccc4C)n3)OC[C@H]1CC(C)(C)C)C2 [Compound 138, (11R)-6-(2,6-Dimethylphenyl)-11-(2,2-dimethylpropyl)-12-[7-(2-methoxyethyl)-7-azaspiro[3.5]nonan-2-yl]-2,2-dioxo-9-oxa-2λ^6-thia-3,5,12,19-tetrazatricyclo[12.3.1.14,8]nonadeca-1(18),4(19),5,7,14,16-hexaen-13-one] | +++ (+++ is >60%) | < 1000 nM | – | – | –
11 | Cc1cccc(C)c1-c1cc2nc(n1)NS(=O)(=O)c1cccc(c1)C(=O)N(C1CC3(CCN3C(=O)CO)C1)[C@H](CC(C)(C)C)CO2 (stereo partly drawn) [Compound 146, (11R)-6-(2,6-Dimethylphenyl)-11-(2,2-dimethylpropyl)-12-[1-(2-hydroxyacetyl)-1-azaspiro[3.3]heptan-6-yl]-2,2-dioxo-9-oxa-2λ^6-thia-3,5,12,19-tetrazatricyclo[12.3.1.14,8]nonadeca-1(18),4(19),5,7,14,16-hexaen-13-one] | – | – | – | – | Ent. B Max Activity (%) (Table 10): +++ (+++ is >60%); EC50 [1]: < 1000 nM
12 | Cc1cccc(C)c1-c1cc2nc(n1)NS(=O)(=O)c1cccc(c1)C(=O)N(C1CC(CO)(CO)C1)[C@H](CC(C)(C)C)CO2 [Compound 158, (11R)-12-[3,3-Bis(hydroxymethyl)cyclobutyl]-6-(2,6-dimethylphenyl)-11-(2,2-dimethylpropyl)-9-oxa-2λ^6-thia-3,5,12,19-tetraazatricyclo[12.3.1.14,8]nonadeca-1(17),4(19),5,7,14(18),15-hexaene-2,2,13-trione] | – | – | – | – | Ent. B Max Activity (%) (Table 10): +++ (+++ is >60%); EC50 [1]: 1000 to 3000 nM
13 | Cc1cccc(C)c1-c1cc2nc(n1)NS(=O)(=O)c1cccc(n1)C(=O)N(C1CC3(CC3)C1)[C@H](CC(C)C)CO2 [Compound 164, (11R)-6-(2,6-Dimethylphenyl)-11-isobutyl-2,2-dioxo-12-spiro[2.3]hexan-5-yl-9-oxa-2λ^6-thia-3,5,12,18,19-pentazatricyclo[12.3.1.14,8]nonadeca-1(18),4(19),5,7,14,16-hexaen-13-one] | +++ (+++ is >60%) | < 1000 nM | – | – | –
14 | Cc1cccc(C)c1-c1cc2nc(n1)NS(=O)(=O)c1cccc(c1)C(=O)N(C1CC3(CCN(C(=O)OC(C)C)CC3)C1)C[C@@H](C)O2 [Compound 181, Isopropyl 2-[(10R)-6-(2,6-dimethylphenyl)-10-methyl-2,2,13-trioxo-9-oxa-2λ^6-thia-3,5,12,19-tetrazatricyclo[12.3.1.14,8]nonadeca-1(18),4(19),5,7,14,16-hexaen-12-yl]-7-azaspiro[3.5]nonane-7-carboxylate] | +++ (+++ is >60%) | < 1000 nM | – | – | –
15 | CC(C)C[C@@H]1COc2cc(-c3c(C(F)(F)F)cccc3C(F)(F)F)nc(n2)NS(=O)(=O)c2cccc(c2)C(=O)N1C1CC2(CC2)C1 [Compound 186, (11R)-6-[2,6-Bis(trifluoromethyl)phenyl]-11-isobutyl-2,2-dioxo-12-spiro[2.3]hexan-5-yl-9-oxa-2λ^6-thia-3,5,12,19-tetrazatricyclo[12.3.1.14,8]nonadeca-1(18),4,6,8(19),14,16-hexaen-13-one] | – | – | ++ (++ is 30-60%) | < 1000 nM | –
16 | COCCCN1CCC2(CC1)CC(N1C(=O)c3cccc(c3)S(=O)(=O)Nc3nc(cc(-c4c(C)cccc4C)n3)OC[C@H]1CC(C)(C)C(F)(F)F)C2 [Compound 188, (11R)-6-(2,6-dimethylphenyl)-12-[7-(3-methoxypropyl)-7-azaspiro[3.5]nonan-2-yl]-11-(3,3,3-trifluoro-2,2-dimethylpropyl)-9-oxa-2λ^6-thia-3,5,12,19-tetraazatricyclo[12.3.1.14,8]nonadeca-1(17),4(19),5,7,14(18),15-hexaene-2,2,13-trione] | – | – | +++ (+++ is >60%) | < 1000 nM | –
17 | Cc1cccc(C)c1-c1cc2nc(n1)NS(=O)(=O)c1cccc(c1)C(=O)N(C1CC3(CCN(CCOC(C)C)CC3)C1)[C@H](CC(C)(C)C(F)(F)F)CO2 [Compound 189, (11R)-6-(2,6-dimethylphenyl)-12-{7-[2-(propan-2-yloxy)ethyl]-7-azaspiro[3.5]nonan-2-yl}-11-(3,3,3-trifluoro-2,2-dimethylpropyl)-9-oxa-2λ^6-thia-3,5,12,19-tetraazatricyclo[12.3.1.14,8]nonadeca-1(17),4(19),5,7,14(18),15-hexaene-2,2,13-trione] | – | – | +++ (+++ is >60%) | < 1000 nM | –
18 | COCCN1CCC2(CC1)CC(N1C(=O)c3cccc(c3)S(=O)(=O)Nc3nc(cc(-c4c(C)cccc4C)n3)OC[C@H]1CC(C)(C)C(F)(F)F)C2 [Compound 190, (11R)-6-(2,6-dimethylphenyl)-12-[7-(2-methoxyethyl)-7-azaspiro[3.5]nonan-2-yl]-11-(3,3,3-trifluoro-2,2-dimethylpropyl)-9-oxa-2λ^6-thia-3,5,12,19-tetraazatricyclo[12.3.1.14,8]nonadeca-1(17),4(19),5,7,14(18),15-hexaene-2,2,13-trione] | – | – | +++ (+++ is >60%) | < 1000 nM | –
